This test has as its system recombinant NL4-3 virus (Renilla luciferase) in MT-2 cells. Nature of the test: HIV cell culture assay (antiviral activity, luciferase readout in infected MT-2 cells). It counts as cell-based. As to conditions: Renilla. In outline:
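EC50 derived via median-effect equation from luciferase activity in MT-2 cells after 4–5 day infection, compound serially diluted. Virus: recombinant NL4-3 with Renilla luciferase replacing part of nef, made in 293T cells.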

Setting [1] is: NL43, read-out: Activity, antiviral activity class, recombinant NL4-3 Renilla luciferase virus in MT-2 cells.
The mark [2] stands for this setting: NL43, recombinant NL4-3 Renilla luciferase virus in MT-2 cells.

Read-outs that look alike come from different tables or passages of the source.

On to `C=Cc1cccc(C[C@H](NC(=O)NS(=O)(=O)c2ccccc2C=C)C(=O)N(C)c2ccc(OC)cc2)c1` [Example 212, (S)—N-(4-methoxyphenyl)-N-methyl-3-(3-vinylphenyl)-2-(3-((2-vinylphenyl)sulfonyl)ureido)propanamide], for which the EC50 is < 0.1 µM under setting [1] and 0.058 µM under setting [2].

In the case of `C/C=C\c1cccc(S(=O)(=O)NC(=O)N[C@@H](Cc2ccccc2)C(=O)N(CC)c2ccc(OC)cc2)c1` [Example 140], the EC50 under setting [1] is < 0.1 µM.

With `COc1cccc(N(C)C(=O)[C@H](Cc2ccccc2)NC(=O)NS(=O)(=O)c2ccccc2C)c1` [Example 166, (S)—N-(3-methoxyphenyl)-N-methyl-3-phenyl-2-(3-(o-tolylsulfonyl)ureido)propanamide], the EC50 was 0.1 to 1 µM under setting [1] and 0.24 µM under setting [2].

On to `CN(C(=O)[C@H](Cc1ccccc1)NC(=O)NS(=O)(=O)C(C)(C)C)c1ccc2c(c1)OCO2` [Example 46, (S)—N-(benzo[d][1,3]dioxol-5-yl)-2-(3-(tert-butylsulfonyl)ureido)-N-methyl-3-phenylpropanamide], for which, under setting [1], the EC50 is 1 to 10 µM.

As for `Cc1ccccc1S(=O)(=O)NC(=O)N[C@@H](Cc1ccc(C(F)(F)F)cc1)C(=O)N(C)c1ccc2c(c1)OCO2` [Example 61, (S)—N-(benzo[d][1,3]dioxol-5-yl)-N-methyl-2-(3-(o-tolylsulfonyl)ureido)-3-(4-(trifluoromethyl)phenyl)propanamide], the EC50 is 1 to 10 µM under setting [1] and 6.62 µM under setting [2].

In the case of `CN(C(=O)[C@H](Cc1ccccc1)NC(=O)NS(=O)(=O)c1ccc(F)cc1)c1ccc2c(c1)OCO2` [Example 22, (S)—N-(benzo[d][1,3]dioxol-5-yl)-2-(3-((4-fluorophenyl)sulfonyl)ureido)-N-methyl-3-phenylpropanamide], the EC50 under setting [1] lay within 0.1 to 1 µM.

For the molecule `Cc1ccccc1S(=O)(=O)NC(=O)N[C@@H](Cc1ccccc1)C(=O)N(C)c1ccccc1` [Example CA-67, (S)—N-methyl-N, 3-diphenyl-2-(3-(o-tolylsulfonyl)ureido)propanamide], the EC50 by setting is: under setting [1], 0.1 to 1 µM; under setting [2], 0.49 µM.

Take `COc1ccc(N(C)C(=O)[C@@H](NC(=O)NS(=O)(=O)c2ccccc2C)[C@@H](C)c2ccccc2)cc1` [Example 197, (2S,3S)—N-(4-methoxyphenyl)-N-methyl-3-phenyl-2-(3-(o-tolylsulfonyl)ureido)butanamide]: the EC50 under setting [1] was in the range of 10 to 100 µM and the EC50 under setting [2] was determined as 11.5 µM.

`C=CCOc1ccc(C[C@H](NC(=O)NS(=O)(=O)c2ccccc2C)C(=O)N(C)c2ccc3c(c2)OCO3)cc1` [Example 58, (S)-3-(4-(allyloxy)phenyl)-N-(benzo[d][1,3]dioxol-5-yl)-N-methyl-2-(3-(o-tolylsulfonyl)ureido)propanamide]: the EC50 under setting [1] lay within 1 to 10 µM.

Turning to `CN(C(=O)[C@H](Cc1ccccc1)NC(=O)NS(=O)(=O)C1(C)CC1)c1ccc2c(c1)OCO2` [Example 4, (S)—N-(benzo[d][1,3]dioxol-5-yl)-N-methyl-2-(3-((1-methylcyclopropyl)sulfonyl)ureido)-3-phenylpropanamide], the EC50 was 1 to 10 µM under setting [1] and 1.11 µM under setting [2].

Consider `COc1ccccc1S(=O)(=O)NC(=O)N[C@@H](Cc1ccccc1)C(=O)N(C)c1ccc2c(c1)OCO2` [Example 108, (S)—N-(benzo[d][1,3]dioxol-5-yl)-2-(3-((2-methoxyphenyl)sulfonyl)ureido)-N-methyl-3-phenylpropanamide], for which the EC50 under setting [1] was in the range of 0.1 to 1 µM.

For the molecule `CCN(C(=O)[C@H](Cc1ccccc1)NC(=O)NS(=O)(=O)c1ccccc1[N+](=O)[O-])c1ccc(OC)cc1` [Example 113, (S)—N-ethyl-N-(4-methoxyphenyl)-2-(3-((2-nitrophenyl)sulfonyl)ureido)-3-phenylpropanamide], the EC50 under setting [1] is < 0.1 µM.

For the molecule `Cc1ccccc1S(=O)(=O)NC(=O)N[C@@H](Cc1ccc(Cl)c(Cl)c1)C(=O)N(C)c1ccc2c(c1)OCO2` [Example 59, (S)—N-(benzo[d][1,3]dioxol-5-yl)-3-(3,4-dichlorophenyl)-N-methyl-2-(3-(o-tolylsulfonyl)ureido)propanamide], the EC50 is 1 to 10 µM under setting [1] and 1.04 µM under setting [2].

Turning to `Cc1ccccc1S(=O)(=O)NC(=O)N[C@@H](Cc1ccccc1)C(=O)N(C)c1nc2ccccc2s1` [Example 176, (S)—N-(benzo[d]thiazol-2-yl)-N-methyl-3-phenyl-2-(3-(o-tolylsulfonyl)ureido)propanamide], the EC50 under setting [1] is 10 to 100 µM.

As to `CN(C(=O)[C@H](Cc1ccccc1)NC(=O)NS(=O)(=O)c1ccc(F)c(F)c1)c1ccc2c(c1)OCO2` [Example 26, (S)—N-(benzo[d][1,3]dioxol-5-yl)-2-(3-((3,4-difluorophenyl)sulfonyl)ureido)-N-methyl-3-phenylpropanamide], under setting [1], the EC50 lay in the range of 0.1 to 1 µM.

With `CN(C(=O)[C@H](Cc1ccccc1)NC(=O)NS(=O)(=O)c1ccccc1)c1ccc(F)cc1` [Example 91], the EC50 under setting [1] lay in the range of 0.1 to 1 µM.

On to `COc1ccc2c(c1)OCCN2C(=O)[C@H](Cc1ccccc1)NC(=O)NS(=O)(=O)c1ccccc1C` [Example 172, (S)—N-((1-(7-methoxy-2H-benzo[b][1,4]oxazin-4(3H)-yl)-1-oxo-3-phenylpropan-2-yl)carbamoyl)-2-methylbenzenesulfonamide], for which the EC50 reads like this: under setting [1], 0.1 to 1 µM; under setting [2], 0.27 µM.

Consider `Cc1ccccc1S(=O)(=O)NC(=O)N[C@@H](Cc1ccccc1)C(=O)N1CCc2sccc2C1` [Example 186, (S)—N-((1-(6,7-dihydrothieno[3,2-c]pyridin-5(4H)-yl)-1-oxo-3-phenylpropan-2-yl)carbamoyl)-2-methylbenzenesulfonamide], for which the EC50 reads like this: under setting [1], 1 to 10 µM; under setting [2], 3.59 µM.

With `CC(C)C1CC1S(=O)(=O)NC(=O)N[C@@H](Cc1ccccc1)C(=O)N(C)c1ccc2c(c1)OCO2` (stereo partly drawn) [Example 106, (2S)—N-(benzo[d][1,3]dioxol-5-yl)-2-(3-((2-isopropylcyclopropyl)sulfonyl)ureido)-N-methyl-3-phenylpropanamide], under setting [1], the EC50 lay within 0.1 to 1 µM.

For `Cc1ccccc1S(=O)(=O)NC(=O)N[C@@H](Cc1ccccc1)C(=O)N1CCCC1c1cccnc1` (stereo partly drawn) [Example 189, 2-methyl-N-(((2S)-1-oxo-3-phenyl-1-(2-(pyridin-3-yl)pyrrolidin-1-yl)propan-2-yl)carbamoyl)benzenesulfonamide], the EC50 under setting [1] lay in the range of 1 to 10 µM.

As to `CCN(C(=O)[C@H](Cc1ccccc1)NC(=O)NS(=O)(=O)c1cc(Br)ccc1C)c1ccc(OC)cc1` [Example 120, (S)-2-(3-((5-bromo-2-methylphenyl)sulfonyl)ureido)-N-ethyl-N-(4-methoxyphenyl)-3-phenylpropanamide], the EC50 under setting [1] lay in the range of 0.1 to 1 µM.

In the case of `COc1ccc(N(CC(C)C)C(=O)[C@H](Cc2ccccc2)NC(=O)NS(=O)(=O)c2ccccc2C)cc1` [Example ZY-6, (S)—N-isobutyl-N-(4-methoxyphenyl)-3-phenyl-2-(3-(o-tolylsulfonyl)ureido)propanamide], the EC50 under setting [1] lay within 1 to 10 µM.

With `CN(C(=O)[C@H](Cc1ccccc1)NC(=O)NS(=O)(=O)C1CCCCC1)c1ccc2c(c1)OCO2` [Example 111, (S)—N-(benzo[d][1,3]dioxol-5-yl)-2-(3-(cyclohexylsulfonyl)ureido)-N-methyl-3-phenylpropanamide], under setting [1], the EC50 lay in the range of 0.1 to 1 µM.

Turning to `COc1ccc(N(C)C(=O)[C@H](Cc2ccccc2)NC(=O)NS(=O)(=O)c2ccccc2)cc1` [Example 92], the EC50 under setting [1] lay within 0.1 to 1 µM.

On to `CCN(C(=O)[C@H](Cc1ccccc1)NC(=O)NS(=O)(=O)c1cccc(-c2ccsc2Cl)c1C)c1ccc(OC)cc1` [Example 156, (S)-2-(3-((3-(2-chlorothiophen-3-yl)-2-methylphenyl)sulfonyl)ureido)-N-ethyl-N-(4-methoxyphenyl)-3-phenylpropanamide], for which the EC50 under setting [1] fell in the range of 0.1 to 1 µM.

In the case of `CN(C(=O)[C@H](Cc1ccccc1)NC(=O)NS(=O)(=O)c1cc(F)ccc1F)c1ccc2c(c1)OCO2` [Example 99, (S)—N-(benzo[d][1,3]dioxol-5-yl)-2-(3-((2,5-difluorophenyl)sulfonyl)ureido)-N-methyl-3-phenylpropanamide], the EC50 was 0.1 to 1 µM under setting [1] and 0.15 µM under setting [2].

With `Cc1ccccc1S(=O)(=O)NC(=O)N[C@@H](Cc1ccccc1)C(=O)N(C)c1ccc(F)c(C(N)=O)c1` [Example CA-100, (S)-2-fluoro-5-(N-methyl-3-phenyl-2-(3-(o-tolylsulfonyl)ureido)propanamido)benzamide], the EC50 under setting [1] was 1 to 10 µM.

`CCN(C(=O)[C@H](Cc1ccccc1)NC(=O)NS(=O)(=O)c1ccccc1C)c1ccc2ncccc2c1` [Example CA-80, (S)—N-ethyl-3-phenyl-N-(quinolin-6-yl)-2-(3-(o-tolylsulfonyl)ureido)propanamide]: the EC50 reads like this: under setting [1], < 0.1 µM; under setting [2], 0.03 µM.

On to `CN(C(=O)[C@H](Cc1ccccc1)NC(=O)NS(=O)(=O)c1ccccc1OC(F)(F)F)c1ccc2c(c1)OCO2` [Example 14, (S)—N-(benzo[d][1,3]dioxol-5-yl)-N-methyl-3-phenyl-2-(3-((2-(trifluoromethoxy)phenyl)sulfonyl)ureido)propanamide], for which, under setting [1], the EC50 was < 0.1 µM.

`Cc1ccccc1S(=O)(=O)NC(=O)N[C@@H](Cc1cc(F)cc(F)c1)C(=O)N(C)c1cccc(Cl)c1` [Example CA-111, (S)—N-(3-chlorophenyl)-3-(3,5-difluorophenyl)-N-methyl-2-(3-(o-tolylsulfonyl)ureido)propanamide]: the EC50 under setting [1] was 1 to 10 µM.

For `CCN(C(=O)[C@H](Cc1ccccc1)NC(=O)NS(=O)(=O)c1cc(-c2ccoc2)ccc1C)c1ccc(OC)cc1` [Example 123, (S)—N-ethyl-2-(3-((5-(furan-3-yl)-2-methylphenyl)sulfonyl)ureido)-N-(4-methoxyphenyl)-3-phenylpropanamide], the EC50 is, setting by setting: under setting [1], 0.1 to 1 µM; under setting [2], 0.66 µM.

As for `Cc1ccccc1S(=O)(=O)NC(=O)N[C@@H](Cc1cc(F)cc(F)c1)C(=O)N(C)c1ccc(F)c(C(N)=O)c1` [Example CA-102, (S)-5-(3-(3,5-difluorophenyl)-N-methyl-2-(3-(o-tolylsulfonyl)ureido)propanamido)-2-fluorobenzamide], the EC50 runs as follows: under setting [1], 1 to 10 µM; under setting [2], 2.58 µM.

The record behind these values is US10035760B2, “Inhibitors of human immunodeficiency virus replication” (priority 2013, dated 2018).
